Bounds are passed on as bounds.

This assay concerns RKO p21 uninduced (proliferating) colon adenocarcinoma cells. The assay can be described thus: Alamar Blue cell viability assay, RKO p21 uninduced (proliferating). In kind it is cell-based. As to conditions: Homo sapiens, Table B3, anti-proliferative/cytotoxic activity, 72 hours, read-out: −log EC50 RKO p21 uninduced (proliferating) (converted). In outline: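 RKO p21 or p27 subclones grown without Ponasterone A, i.e. proliferating, exposed 24 h after seeding to semi-log compound dilutions in DMEM/10% FCS (1% DMSO controls) for 72 h at 37° C. Alamar Blue fluorescence (544/590 nm) read relative to untreated cells; EC50 from dose-response curves, given as −log EC50 (mol/l).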
(In general: Resazurin is reduced to fluorescent resorufin, in cell work by metabolically active cells.)
On to `CC(=O)N1CCN(CCN2C(=O)N3[C@H](c4cccc(O)c4)c4[nH]c5ccc(OC(F)F)cc5c4C[C@@]3(C)C2=O)CC1` (racemic) [Example 295, (3aSR,10RS)-2-[2-(4-Acetyl-piperazin-1-yl)-ethyl]-6-(1,1-difluoro-methoxy)-10-(3-hydroxy-phenyl)-3a-methyl-3a,4,9,10-tetrahydro-2,9,10a-triaza-cyclopenta[b]fluorene-1,3-dione], for which the half-maximal effective concentration (EC50) is 39.8 to 251 nM.
For the compound `CN1CCN(CCN2C(=O)N3[C@H](c4cccc(O)c4)c4[nH]c5ccc(Br)cc5c4C[C@@]3(C)C2=O)CC1` (racemic) [Example 386, (3aSR,10RS)-6-Bromo-10-(3-hydroxy-phenyl)-3a-methyl-2-[2-(4-methyl-piperazin-1-yl)-ethyl]-3a,4,9,10-tetrahydro-2,9,10a-triaza-cyclopenta[b]fluorene-1,3-dione], the EC50 is ≤ 39.8 nM.
As for `CNCCN1C(=O)N2[C@H](c3cccc(O)c3)c3[nH]c4cc(F)c(Cl)cc4c3C[C@@]2(C)C1=O` (racemic) [Example 337, (3aSR,10RS)-6-Chloro-7-fluoro-10-(3-hydroxy-phenyl)-3a-methyl-2-(2-methylamino-ethyl)-3a,4,9,10-tetrahydro-2,9,10a-triaza-cyclopenta[b]fluorene-1,3-dione], the EC50 was ≤ 39.8 nM.
As to `CC(C)N(C)CCN1C(=O)N2[C@H](c3cccc(O)c3)c3[nH]c4cc(F)c(Cl)cc4c3C[C@@]2(C)C1=O` (racemic) [Example 352, (3aSR,10RS)-6-Chloro-7-fluoro-10-(3-hydroxy-phenyl)-2-[2-(isopropyl-methyl-amino)-ethyl]-3a-methyl-3a,4,9,10-tetrahydro-2,9,10a-triaza-cyclopenta[b]fluorene-1,3-dione], the EC50 is ≤ 39.8 nM.
In the case of `COc1ccc2[nH]c3c(c2c1F)C[C@@]1(C)C(=O)N(CCNC(C)C)C(=O)N1[C@@H]3c1cccc(O)c1` (racemic) [Example 408, (3aSR,10RS)-5-Fluoro-10-(3-hydroxy-phenyl)-2-{2-isopropylamino-ethyl)-6-methoxy-3a-methyl-3a,4,9,10-tetrahydro-2,9,10a-triaza-cyclopenta[b]fluorene-1,3-dione] it was 39.8 to 251 nM; in that of `CCOc1ccc2[nH]c3c(c2c1)C[C@@]1(C)C(=O)N(CCCN(CC)CCOC)C(=O)N1[C@@H]3c1cccc(O)c1` (racemic) [Example 195, (3aSR,10RS)-6-Ethoxy-2-{3-[ethyl-(2-methoxy-ethyl)-amino]-propyl}-10-(3-hydroxy-phenyl)-3a-methyl-3a,4,9,10-tetrahydro-2,9,10a-triaza-cyclopenta[b]fluorene-1,3-dione], 39.8 to 251 nM; in that of `C[C@@]12Cc3c([nH]c4ccc(Br)cc34)[C@@H](c3cccc(O)c3)N1C(=O)N(CCCNC1CC1)C2=O` (racemic) [Example 215, (3aSR,10RS)-6-Bromo-2-(3-cyclopropylamino-propyl)-10-(3-hydroxy-phenyl)-3a-methyl-3a,4,9,10-tetrahydro-2,9,10a-triaza-cyclopenta[b]fluorene-1,3-dione], ≤ 39.8 nM.
On to `CN(CCO)CCCN1C(=O)N2[C@H](c3cccc(O)c3)c3[nH]c4cc(F)c(Cl)cc4c3C[C@@]2(C)C1=O` (racemic) [Example 468, (3aSR,10RS)-6-Chloro-7-fluoro-2-{3-[(2-hydroxy-ethyl)-methyl-amino]-propyl}-10-(3-hydroxy-phenyl)-3a-methyl-3a,4,9,10-tetrahydro-2,9,10a-triaza-cyclopenta[b]fluorene-1,3-dione], for which the EC50 is ≤ 39.8 nM.
In the case of `CCN(CC)CCN1C(=O)N2[C@H](c3cccc(O)c3)c3[nH]c4cc(F)c(OC)cc4c3C[C@@]2(C)C1=O` (racemic) [Example 258, (3aSR,10RS)-2-(2-Diethylamino-ethyl)-7-fluoro-10-(3-hydroxy-phenyl)-6-methoxy-3a-methyl-3a,4,9,10-tetrahydro-2,9,10a-triaza-cyclopenta[b]fluorene-1,3-dione] it was 39.8 to 251 nM; in that of `CC(C)N(C)CCCN1C(=O)N2[C@H](c3cccc(O)c3)c3[nH]c4cc(F)c(Cl)cc4c3C[C@@]2(C)C1=O` (racemic) [Example 474, (3aSR,10RS)-6-Chloro-7-fluoro-10-(3-hydroxy-phenyl)-2-[3-(isopropyl-methyl-amino)-propyl]-3a-methyl-3a,4,9,10-tetrahydro-2,9,10a-triaza-cyclopenta[b]fluorene-1,3-dione], ≤ 39.8 nM.
Under `CCN(CCO)CCCN1C(=O)N2[C@H](c3cccc(O)c3)c3[nH]c4cc(F)c(OC)cc4c3C[C@@]2(C)C1=O` (racemic) [Example 315, (3aSR,10RS)-2-{3-[Ethyl-(2-hydroxy-ethyl)-amino]-propyl}-7-fluoro-10-(3-hydroxy-phenyl)-6-methoxy-3a-methyl-3a,4,9,10-tetrahydro-2,9,10a-triaza-cyclopenta[b]fluorene-1,3-dione] stands 39.8 to 251 nM.
As for `CCNCCCN1C(=O)N2[C@H](c3cccc(O)c3)c3[nH]c4cc(F)c(OC)cc4c3C[C@@]2(C)C1=O` (racemic) [Example 330, (3aSR,10RS)-2-(3-Ethylamino-propyl)-7-fluoro-10-(3-hydroxy-phenyl)-6-methoxy-3a-methyl-3a,4,9,10-tetrahydro-2,9,10a-triaza-cyclopenta[b]fluorene-1,3-dione], the EC50 was 39.8 to 251 nM.
On to `CCN(CC)CCCN1C(=O)N2[C@H](c3cccc(O)c3)c3[nH]c4cc(F)c(OC)cc4c3C[C@@]2(C)C1=O` (racemic) [Example 313, (3aSR,10RS)-2-(3-Diethylamino-propyl)-7-fluoro-10-(3-hydroxy-phenyl)-6-methoxy-3a-methyl-3a,4,9,10-tetrahydro-2,9,10a-triaza-cyclopenta[b]fluorene-1,3-dione], for which the EC50 was 39.8 to 251 nM.
`COc1cc2c3c([nH]c2cc1F)[C@@H](c1cccc(O)c1)N1C(=O)N(CCCN2CCN(C)CC2)C(=O)[C@]1(C)C3` (racemic) [Example 325, (3aSR,10RS)-7-Fluoro-10-(3-hydroxy-phenyl)-6-methoxy-3a-methyl-2-[3-(4-methyl-piperazin-1-yl)-propyl]-3a,4,9,10-tetrahydro-2,9,10a-triaza-cyclopenta[b]fluorene-1,3-dione]: the 50% effective concentration (EC50) was 39.8 to 251 nM.
In the case of `CCOc1ccc2[nH]c3c(c2c1)C[C@@]1(C)C(=O)N(CCCNC)C(=O)N1[C@@H]3c1cccc(O)c1` (racemic) [Example 186, (3aSR,10RS)-6-Ethoxy-10-(3-hydroxy-phenyl)-3a-methyl-2-(3-methylamino-propyl)-3a,4,9,10-tetrahydro-2,9,10a-triaza-cyclopenta[b]fluorene-1,3-dione], the EC50 is 39.8 to 251 nM.
For the compound `CCN(CCO)CCCN1C(=O)N2[C@H](c3cccc(O)c3)c3[nH]c4ccc(OC(F)F)cc4c3C[C@@]2(C)C1=O` (racemic) [Example 177, (3aSR,10RS)-6-(1,1-Difluoro-methoxy)-2-{3-[ethyl-(2-hydroxy-ethyl)-amino]-propyl}-10-(3-hydroxy-phenyl)-3a-methyl-3a,4,9,10-tetrahydro-2,9,10a-triaza-cyclopenta[b]fluorene-1,3-dione], the EC50 is ≤ 39.8 nM.
Consider `COc1ccc2[nH]c3c(c2c1)C[C@@]1(C)C(=O)N(CCCNCC2CC2)C(=O)N1[C@@H]3c1cccc(O)c1` [Example 535, (3aS,10R)-2-[3-(Cyclopropylmethyl-amino)-propyl]-10-(3-hydroxy-phenyl)-6-methoxy-3a-methyl-3a,4,9,10-tetrahydro-2,9,10a-triaza-cyclopenta[b]fluorene-1,3-dione], for which the EC50 was ≤ 39.8 nM.
Regarding `CCOc1ccc2[nH]c3c(c2c1)C[C@@]1(C)C(=O)N(CCN(C)CC)C(=O)N1[C@@H]3c1cccc(O)c1` (racemic) [Example 158, (3aSR,10RS)-6-Ethoxy-2-[2-(ethyl-methyl-amino)-ethyl]-10-(3-hydroxy-phenyl)-3a-methyl-3a,4,9,10-tetrahydro-2,9,10a-triaza-cyclopenta[b]fluorene-1,3-dione], the EC50 was ≤ 39.8 nM.
In the case of `COc1ccc2[nH]c3c(c2c1)C[C@@]1(C)C(=O)N(CCCNC(C)(C)C)C(=O)N1[C@@H]3c1cccc(O)c1` (racemic) [Example 167, (3aSR,10RS)-2-(3-tert-Butylamino-propyl)-10-(3-hydroxy-phenyl)-6-methoxy-3a-methyl-3a,4,9,10-tetrahydro-2,9,10a-triaza-cyclopenta[b]fluorene-1,3-dione], the EC50 was ≤ 39.8 nM.
Turning to `CCN(CCO)CCCN1C(=O)N2[C@H](c3cccc(O)c3)c3[nH]c4ccc(Cl)cc4c3C[C@@]2(C)C1=O` (racemic) [Example 168, (3aSR,10RS)-6-Chloro-2-{3-[ethyl-(2-hydroxy-ethyl)-amino]-propyl}-10-(3-hydroxy-phenyl)-3a-methyl-3a,4,9,10-tetrahydro-2,9,10a-triaza-cyclopenta[b]fluorene-1,3-dione], the concentration for a half-maximal effect (EC50) was ≤ 39.8 nM.
On to `C[C@@]12Cc3c([nH]c4ccc(OC(F)F)cc34)[C@@H](c3cccc(O)c3)N1C(=O)N(CCCN1CCCCCC1)C2=O` (racemic) [Example 243, (3aSR,10RS)-2-(3-Azepan-1-yl-propyl)-6-(1,1-difluoro-methoxy)-10-(3-hydroxy-phenyl)-3a-methyl-3a,4,9,10-tetrahydro-2,9,10a-triaza-cyclopenta[b]fluorene-1,3-dione], for which the EC50 was ≤ 39.8 nM.
With `CCN(CCO)CCCN1C(=O)N2[C@H](c3cccc(O)c3)c3[nH]c4ccc(OC)cc4c3C[C@@]2(C)C1=O` [Example 543, (3aS,10R)-2-{3-[Ethyl-(2-hydroxy-ethyl)-amino]-propyl}-10-(3-hydroxy-phenyl)-6-methoxy-3a-methyl-3a,4,9,10-tetrahydro-2,9,10a-triaza-cyclopenta[b]fluorene-1,3-dione], the EC50 is ≤ 39.8 nM.
As to `COc1ccc2[nH]c3c(c2c1F)C[C@@]1(C)C(=O)N(CCNC2CCC2)C(=O)N1[C@@H]3c1cccc(O)c1` (racemic) [Example 413, (3aSR,10RS)-2-(2-Cyclobutylamino-ethyl)-5-fluoro-10-(3-hydroxy-phenyl)-6-methoxy-3a-methyl-3a,4,9,10-tetrahydro-2,9,10a-triaza-cyclopenta[b]fluorene-1,3-dione], the EC50 was 39.8 to 251 nM.

The term EC50 denotes the concentration giving half of the maximal effect.

Source of the values: patent US8530493B2, “Indolopyridines as Eg5 kinesin modulators” (4SC AG, priority 2006, dated 2013).
